Counter-ions that a name gives are not always drawn.
How the values were obtained:
HCT116 [1] = assay: AC50 cell viability (CellTiter-Glo); higher = less potent; conditions: 48 h
HCT116 [2] = assay: efficacy (fitted maximal change in viability relative to DMSO control); higher = less cytotoxic (negative = loss of viability); conditions: 48 h
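For AC50 cell viability (CellTiter-Glo) in this document: HCT116 colorectal carcinoma cells screened at five concentrations per compound, luminescent viability scaled between DMSO wells and empty wells on each plate, curves fitted per compound.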
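For efficacy (fitted maximal change in viability relative to DMSO control) in this document: Luminescence-based viability readout, five doses per compound, normalized against on-plate DMSO and empty-well controls, followed by dose-response curve fitting for every drug.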

Row | Compound | AC50 cell viability (HCT116 [1]) [µM] | efficacy (HCT116 [2]) [%]
1 | C[C@H]1CCC/C=C/C2C[C@H](O)C[C@H]2[C@H](O)/C=C/C(=O)O1 (some centres undefined) [Cyanein] | 0.235 | -91.1
2 | CCNC(=O)c1cc2c(-c3cc(OCCN4CCCC4)c(Cl)cc3Cl)nc(N)nc2s1 | 0.456 | -57.9
3 | C=CCNc1c(O)cc2c(O)c1C[C@@H](C)C[C@H](OC)[C@H](O)[C@@H](C)/C=C(/C)[C@H](OC(N)=O)[C@@H](OC)/C=C\C=C(\C)C(=O)N2 [Retaspimycin Hydrochloride] | 0.372 | -66.4
4 | CC(C)[C@@H](C[S+](=O)([O-])C(C)C)N1C(=O)[C@@](C)(CC(=O)O)C[C@H](c2cccc(Cl)c2)[C@H]1c1ccc(Cl)cc1 [AMG-232] | 1.48 | -84.7
5 | OC1CCC(Nc2ncc3nc(Nc4c(F)cc(F)cc4F)n([C@@H]4CCOC4)c3n2)CC1 (some centres undefined) | 18.6 | -43.3
6 | Cc1nn(Cc2ccccc2Cl)c(C)c1CN(C)CC(O)COc1ccc(Cl)cc1 (centres undefined) | 18.6 | -92.3
7 | O=c1[nH]c2ccccc2n1CCCN1CCC(n2c(=O)[nH]c3cc(Cl)ccc32)CC1 [Domperidone] | 18.6 | -68
8 | COC(=O)/C=C/C(=O)N(O)CCCCNCc1ccc(COC(=O)Nc2cccc3ccccc23)cc1 [Methylstat] | 20.9 | -84.5
9 | FC(F)(F)c1ccc(Nc2nc(-c3c(C(F)(F)F)nc4ccccn34)cs2)cc1 [PTC-691] | 0.332 | -73.4
10 | COC(=O)[C@@]12OC[C@]34[C@H]([C@@H](O)[C@@H]1O)[C@@]1(C)CC(=O)C(O)=C(C)[C@@H]1C[C@H]3OC(=O)[C@H](OC(=O)/C=C(\C)C(C)C)[C@@H]24 [Bruceantin] | 0.00833 | -71.9
11 | OC[C@H]1O[C@H](C[C@@H]1O)N2\C=C(F)/C(=O)NC2=O [Floxuridine] | 0.235 | -82.9
12 | CC/C(=C(\c1ccccc1)c1ccc(OCCN(C)C)cc1)c1ccccc1 [Tamoxifen] | 15.2 | -87.8
13 | CNc1nccc(-c2cccnc2Oc2cc(C(=O)Nc3cccc(C(F)(F)F)c3)ccc2C)n1 [AMG-Tie2-1] | 1.66 | -78.8
14 | c1ccc(CNc2nc(N3CCOc4ccccc43)nc3c2CCCC3)cc1 | 20.9 | -42.4
15 | COC1=CC=C(C=C1)C2=NC3=CC(=CC=C3[NH]2)/C4=N/NC(=O)CC4C (centres undefined) [Pimobendan] | 9.34 | -48.6
16 | CN(C)/N=N/c1nc[nH]c1C(N)=O [Dacarbazine] | 10.5 | -45.8
17 | CO/C1=C/C(C)=C\[C@@H](C)[C@@H](O)[C@@H](C)C/C(C)=C\C=C/[C@H](OC)[C@@H]([C@@H](C)[C@@H](O)[C@H](C)[C@@]2(O)C[C@@H](O)[C@H](C)[C@@H](C(C)C)O2)OC1=O [Bafilomycin A1] | 0.035 | -81.9
18 | C[C@@]1(c2ncncc2F)NC(=O)c2cc(-c3cn[nH]c3)ccc21 | 14.8 | -101
19 | Cc1[nH]c(/C=C2\C(=O)Nc3ccccc32)c(C)c1CCC(=O)O [Orantinib] | 23.5 | -49.3
20 | CN1CCN(CCCN2c3ccccc3Sc3ccc(C(F)(F)F)cc32)CC1 [Trifluoperazine hydrochloride] | 26.3 | -119
21 | O=C(Nc1cc(C(F)(F)F)cc(C(F)(F)F)c1)c1cc(Cl)ccc1O [IMD-0354] | 0.833 | -88.7

Row | Compound | AC50 cell viability (HCT116 [1]) [µM] | efficacy (HCT116 [2]) [%]
22 | NC1=C(Cl)C(=CC=N1)OC2=C(F)C=C(NC(=O)\C3=C\N\C=C(C3=O)\C4=CC=C(F)C=C4)C=C2 | 16.6 | -78.4
23 | CC1(N2CCC(n3c([C@@H]4CCCNC4)nc4ccccc43)CC2)CCCCCCC1 [MCOPPB] | 9.34 | -82.3
24 | Nc1cccc(-c2cc3c(Oc4cccc(O)c4)ncnc3[nH]2)c1 [TWS-119] | 11.8 | -90.2
25 | COc1c(C)cnc(Cn2cnc3c(Cl)nc(N)nc32)c1C [CNF-2024] | 0.148 | -57
26 | CCc1cc(/C(C)=N/OCc2ccc(C3CCCCC3)c(C(F)(F)F)c2)ccc1CN1CC(C(=O)O)C1 [BAF-312] | 20.9 | -66.2
27 | Cc1ccc(C(=O)Nc2cccc(C(F)(F)F)c2)cc1Nc1nc(-c2cccnc2)nc2c1cnn2C [NVP-BHG712] | 8.33 | -103
28 | CCN(CC)CCNc1ccc(C)c2sc3ccccc3c(=O)c12 [Lucanthone] | 14.8 | -119
29 | CN1CCc2c(n(Cc3ccc(C(=O)NO)cc3)c3ccccc23)C1 [Compound 7] | 26.3 | -98.9
30 | CCOC(=O)N1c2ccc(C(F)(F)F)cc2[C@@H](N(Cc2cc(C(F)(F)F)cc(C(F)(F)F)c2)C(=O)OC)C[C@H]1CC [Torcetrapib] | 8.33 | -45.4
31 | C[C@@H]1O[C@@H](O[C@@H]2C=C3CC[C@@H]4[C@H](CC[C@]5(C)[C@@H](c6ccc(=O)oc6)CC[C@]45O)[C@@]3(C)CC2)[C@H](O)[C@H](O)[C@H]1O [Proscillaridin] | 0.00833 | -82.5
32 | CC[C@@]1(O)C(=O)OCC/2=C1/C=C3\N(CC4=CC5=CC(=CC=C5N=C34)O)C2=O [10-hydroxycamptothecin] | 0.105 | -79.9
33 | CC(=O)N(O)CCCCCNC(=O)CCC(=O)N(O)CCCCCNC(=O)CCC(=O)N(O)CCCCCN [Deferoxamine mesylate] | 9.34 | -95.9
34 | COc1cc([C@@H]2c3cc4c(cc3[C@@H](O[C@@H]3O[C@@H]5CO[C@@H](c6cccs6)O[C@H]5[C@H](O)[C@H]3O)[C@H]3COC(=O)[C@H]23)OCO4)cc(OC)c1O [Teniposide] | 4.17 | -104
35 | CN1CCN(CC1)C2=CC=C(NC3=NC=C4\C=C(\C#N)C(=O)N(C5CCCC5)C4=N3)C=C2 | 1.32 | -77.1
36 | CCc1cnn2c(NCc3ccc[n+]([O-])c3)cc(N3CCCC[C@H]3CCO)nc12 | 0.0148 | -67.1
37 | CN[C@H]1CCC2=CC(=C(OC)C(=C2C/3=C/C=C(OC)\C(=O)/C=C13)OC)OC [Demecolcine] | 0.059 | -62.6
38 | O=C1c2ccccc2-c2n[nH]c3cccc1c23 | 13.2 | -63.8
39 | COc1cc2ncnc(Nc3ccc(O)c(Br)c3)c2cc1OC [WHI-P154] | 14.8 | -72.5
40 | CN1CCN(Cc2ccc(Nc3ncc(Cl)/c(=N\c4ccccc4[S+](=O)([O-])N(C)C)[nH]3)cc2)CC1 [TP-0903] | 0.027 | -65.8
41 | Cc1nc([C@](C)(O)CO)sc1-c1cnc(N)c(O[C@H](C)c2cc(F)ccc2-n2nccn2)c1 | 3.72 | -57.7
42 | Cc1c(C(=O)NN2CCCCC2)nn(-c2ccc(Cl)cc2Cl)c1-c1ccc(Cl)cc1 [Rimonabant] | 23.5 | -93.4

— the supplement of paper PMC10290057
